Where “and” joins values, the source holds several entries; their conditions need not be identical. Equal values may be shown once. Where a name gives a salt, the structure may show the parent alone.
Assays:
[1] = test system: Non-enzymatically browned BSA (AGE-BSA) coupled to Collagen Type-I coated plates; test: Assay of Uncoupling Activity on non-enzymatically browned BSA coupled to collagen coated plates (ELISA); assay type: biochemical; details: for % uncoupling at 10 mM, 2 days / % uncoupling at 20 mM, 1 day: sugar-mediated coupling of albumen to collagen; for % uncoupling at 5 mM, 1 day: naphthothiazolium test compounds
Protocol: Assay of Uncoupling Activity on Non-Enzymattically Browned BSA Coupled to Collagen Coated Plates
Equipment, Reagents, and Other Materials
Mix equal volume of BSA (50 mg/ml in 1×PBS) and glucose (0.5 M in PBS); keep the solution (after filtered through a 0.22 µm filter and placed in a capped bottle) in a 37° C. incubator for 5 weeks.
Remove an aliquot of the solution and dialyze against 500-fold volume of PBS, with 4 changes of buffer within 2 days. Collect the solution, as AGE-BSA, from dialysis bag and determine the protein concentration. […] During this hour, • Rinse the plate washer with autoclaved dH2O and then flush 3 times with PBS-Tween washing buffer containing 0.05% of Tween-20. • Dilute AGE-BSA in 1×PBS to 0.03 g/l. […] (Record the hours of incubation.) • In the meantime, run maintenance program (Overnight rinse/soak) on the plate washer using autoclaved distilled H2O. • After incubation, flush the plate washer 3 times with PBS-Tween washing buffer. • Wash the plate 4 times with 1×PBS buffers containing 0.2% Tween-20. • Wash 6 more times with PBS-0.05% Tween washing buffer in two directions, 3 times/direction. • Prepare 1:8000 dilution (in 1×PBS) of anti-BSA antibody (rabbit IgG-HRP) • Add 50 1 of diluted antibody to the wells, incubate at room temperature for 30 min. • Wash 8 times with PBS-0.05% Tween washing buffer in two directions, 4 times/direction. • Add 100 1 of TMB substrate solution to the wells; incubate at RT for 15 min. • Stop the reaction by adding 100 1 of 2 M H2SO4. • Read absorbance at 450 nm in an ELISA plate reader. • Plot and analyze data.

[2] = Hair stress vs. strain relationship (stiffness) before and after treatment
Excerpt: Methodology for Determination of Hair Stress vs. Strain Relationship (Stiffness).
The distensibility (i.e, elasticity, rigidity, shear, tensile strength, compression, etc.) of hair, nails, tendons, etc. can be easily determined using widely available commercial devices, such as manufactured by Instron. Alternatively, other test methods known to a practitioner of the art may be employed.
The test assay for determining whether hair has been “rejuvenated” for the present invention is the following. Individual scalp hairs were cemented into the ends of glass capillary tubes such that several centimeters of the shaft protruded from the end. This hair was then trimmed to extend 18 mm from the end of the tube. […] Thus, this determination of stress vs strain of bending assessed elasticity, compressibility, and shear of each hair shaft. Each hair served as its own control, with baseline and post-treatment properties assessed and directly compared.
A 1 mm thick plate with a 0.5 mm diameter hole drilled through was attached to the surface of an isometric strain gauge. […] The force required to bend each hair a specified distance was determined over a wide range of displacements. […] For purposes of the present invention, the term “rejuvenated” hair shall mean an improvement of at least 20% in the measured values of the treated hair, toward the values seen in young, undamaged hair (i.e. healthy human). […]

In the case of Cc1nc2c(c[n+]1CC(=O)c1ccccc1)CNC(=O)N2.[Br-] [2-Methyl-3-(2-oxo-2-phenylethyl)-7-oxo-5,6,7,8-tetrahydropyrimidino [4,5-d]pyrimidin-3-ium bromide], the “% uncoupling, 1 day (footnote a: at 30 mM)” value ([1]; 1 day) is reported as 22^a %.
With Cc1csc(C)[n+]1CC(=O)c1ccccc1.[Br-] [2,4-Dimethyl-3-(2-oxo-2-phenylethyl)thiazolium bromide] the “% uncoupling at 10 mM, 2 days” value ([1]; 10 mM) was 36% and the “% uncoupling at 20 mM, 1 day” value ([1]; 1 day) was 51%.
In the case of CC1OC(=O)C[n+]2ccsc21.[Br-] (stereo not shown) [5,6-Dihydro-8-methyl-6-oxo-8H-thiazolo[2,3-c](1,4)oxazin-4-ium bromide], the melting point is reported as 214 to 215.5 °C and the “% uncoupling, 1 day (footnote a: at 30 mM)” value ([1]; 1 day) is reported as 36^a %.
For CC(=O)OC(C)c1scc[n+]1CC(=O)c1ccccc1.[Br-] (stereo not shown) [3-[2-Oxo-2-phenylethyl]-2-(1-acetoxyethyl)thiazolium bromide], the “% uncoupling at 20 mM, 1 day” value ([1]; 1 day) was 52%.
In the case of Cc1sc(C(C)O)[n+](CC(=O)c2ccccc2)c1C.[Br-] (stereo not shown) [4,5-dimethyl-2-(1-hydroxyethyl)-3-(2-oxo-2-phenylethyl)thiazolium bromide], the melting point is reported as 174 to 176 °C and the “% uncoupling at 20 mM, 1 day” value ([1]; 1 day) is reported as 45%.
With CCN=c1sc2c(C)c(O)c3ccccc3c2n1CC.Cl [1-ethyl-2-(ethylimino)-1,2-dihydro-4-methylnaphtho[1,2-d]thiazol-5-ol monohydrochloride] the “stiffness of hair after treatment” value ([2]; FIG. 1) was “decreases the stiffness of hair”, the “resulting stress less than before treatment (hair stiffness)” value ([2]; hair immersed in 10 mM solution for 15 minutes, strain greater than about 0.06) was “about 50%” and the “% uncoupling at 5 mM, 1 day” value ([1]; 1 day, monohydrochloride) was 59% and 58%.
With Cc1sc[n+](CC(=O)c2ccccc2)c1C.[Cl-] [4,5-Dimethyl-3-(2-oxo-2-phenylethyl)thiazolium chloride, reference compound] the “% uncoupling at 10 mM, 2 days” value ([1]; 10 mM) was 52% and the “% uncoupling at 20 mM, 1 day” value ([1]; 1 day) was 39%.
With CCc1scc(C)[n+]1CC(=O)c1ccccc1.[Br-] [2-Ethyl-4-methyl-3-(2-oxo-2-phenylethyl)thiazolium bromide] the “% uncoupling at 20 mM, 1 day” value ([1]; 1 day) was 57%.
For Cc1c(O)c2ccccc2c2c1sc(=NC(C)C)n2CCCN(C)C.Cl.Cl [1,2-dihydro-1-[3-(dimethylamino)propyl]-4-methyl-2-[(1-methylethyl)imino]naphtho[1,2-d]thiazol-5-ol dihydrochloride], the “% uncoupling at 5 mM, 1 day” value ([1]; 1 day) was 19%.
For CC(O)c1scc[n+]1CC(=O)N1CCCC1.[Cl-] (stereo not shown) [2-(1-hydroxyethyl)-3-[2-oxo-2-(1-pyrrolidinyl)ethyl]thiazolium chloride], the “% uncoupling at 10 mM, 2 days” value ([1]; 10 mM) was 32%.
In the case of N#CCc1cccc[n+]1CC(=O)N1CCCC1.[Br-] [1-[2-(1-pyrrolidinyl)-2-oxoethyl]-2-(cyanomethyl)pyridinium bromide], the “% uncoupling at 10 mM, 2 days” value ([1]; 10 mM) is reported as 68%.
For O=C(C[n+]1ccccc1Cc1ccccc1)c1ccccc1.[Br-] [2-benzyl-1-(2-oxo-2-phenylethyl)pyridinium bromide], the “% uncoupling at 20 mM, 1 day” value ([1]; 1 day) was 54%.
N#CCc1cccc[n+]1CC(=O)N1CCCC1.[Cl-] gave a melting point of 130 to 132 °C.
For Cc1c(O)c2ccccc2c2nc(NCCCN3CCOCC3)sc12 [4-Methyl-2-[[3-(4-morpholino)propyl]amino]naphtho[1,2-d]thiazol-5-ol dihydrochloride], the “% uncoupling at 5 mM, 1 day” value ([1]; 1 day) was 36%.
For Cc1c(O)c2ccccc2c2c1sc(NC1CCCCC1)[n+]2CCCN1CCOCC1 [2-(Cyclohexylimino)-1,2-dihydro-4-methyl-1-[3-(4-morpholino)propyl]naphtho[1,2-d]thiazol-5-ol dihydrochloride], the “% uncoupling at 5 mM, 1 day” value ([1]; 1 day) was 22%.
With CC(=O)OC(C)c1scc[n+]1CC(=O)N1CCCC1.[Br-] (stereo not shown) [3-[2-Oxo-2-(1-pyrrolidinyl)ethyl]-2-(1-acetoxyethyl)thiazolium bromide] the “% uncoupling at 20 mM, 1 day” value ([1]; 1 day) was 46%.
With CC(O)c1scc[n+]1CC(=O)c1ccccc1.[Br-] (stereo not shown) [3-(2-Oxo-2-phenylethyl)-2-(1-hydroxyethyl)thiazolium bromide] the “% uncoupling at 10 mM, 2 days” value ([1]; 10 mM) was 54%.
For Cc1c(O)c2ccccc2c2c1sc(NC1CCCCC1)[n+]2CCCN1CCN(C)CC1.[Cl-] [2-(Cyclohexylimino)-1,2-dihydro-4-methyl-1-[3-(4-methyl-1-piperazinyl)propyl]naphtho[1,2-d]thiazol-5-ol trihydrochloride], the “% uncoupling at 5 mM, 1 day” value ([1]; 1 day) was 21%.
With CC(OC(=O)c1ccccc1)c1scc[n+]1CC(=O)c1ccccc1.[Br-] (stereo not shown) [3-(2-Oxo-2-phenylethyl)-2-(1-benzoyloxyethyl)thiazolium bromide] the “% uncoupling at 20 mM, 1 day” value ([1]; 1 day) was 68%.
In the case of Cc1sc2[n+](c1C)C=C(c1ccccc1)OC2C.[Br-] (stereo not shown) [2,3,8-Trimethyl-6-phenyl-8H-thiazolo[2,3-c](1,4)oxazin-4-ium bromide], the “% uncoupling at 20 mM, 1 day” value ([1]; 1 day) is reported as 34%.
In the case of O=C(Cn1cc[n+](CC(=O)c2ccccc2)c1)c1ccccc1.[Br-] [1,3-bis(2-oxo-2-phenylethyl)imidazolium bromide], the “% uncoupling, 1 day (footnote b: at 10 mM)” value ([1]; 10 mM, 1 day) is reported as 25^b %.
In the case of CC(O)c1scc[n+]1CC(=O)O (stereo not shown) [3-carboxymethyl-2-(1-hydroxyethyl)thiazole], the “% uncoupling at 20 mM, 1 day” value ([1]; 1 day) is reported as 47%.

From patent publication US7022721B1, “Method and composition for rejuvenating cells, tissues, organs, hair and nails” (priority 2001, dated 2006)
